Data from publication PMC6084503, “Pyrrolo[3,2-c]pyridine derivatives with potential inhibitory effect against FMS kinase: in vitro biological studies” (Journal of Enzyme Inhibition and Medicinal Chemistry, 2018).

Assays:
FMS kinase = target: T1, FMS kinase (Homo sapiens, UniProt P07333); experiment: Kinase HotSpot cell-free enzyme assay, FMS kinase; format: biochemical; conditions: single-dose concentration of 1 μM
T1 construct: purchased Reaction Biology Corp

[1] = tested on: DU-145 prostate cancer cell line; experiment: NCI antiproliferative screening, 5-dose; format: cell-based
Protocol: (§1) Compounds 1r and KIST101029 were tested at the National Cancer Institute (NCI, Bethesda, MD) following their standard protocol [https://dtp.cancer.gov/discovery_development/nci-60/methodology.htm].
(§2) Due to over-expression of FMS kinase in certain types of tumours such as ovarian, prostate, and breast[5–7] cancers, we decided to test the antiproliferative activity of compound 1r against a panel of six ovarian, two prostate, and five breast cancer cell lines. It was also tested against HS 27 fibroblasts in order to investigate the selectivity indexes. The results were compared with those of KIST101029 as a reference standard.

[2] = tested on: MDA-MB-468 breast cancer cell line; experiment: NCI antiproliferative screening, 5-dose; format: cell-based
Protocol: as §1, §2

[3] = tested on: HS 578T breast cancer cell line; experiment: NCI antiproliferative screening, 5-dose; format: cell-based
Protocol: as §1, §2

[4] = tested on: IGROV1 ovarian cancer cell line; experiment: NCI antiproliferative screening, 5-dose; format: cell-based
Protocol: as §1, §2

[5] = tested on: MDA-MB-231/ATCC breast cancer cell line; experiment: NCI antiproliferative screening, 5-dose; format: cell-based
Protocol: as §1, §2

[6] = tested on: PC-3 prostate cancer cell line; experiment: NCI antiproliferative screening, 5-dose; format: cell-based
Protocol: as §1, §2

[7] = tested on: OVCAR-3 ovarian cancer cell line; experiment: NCI antiproliferative screening, 5-dose; format: cell-based
Protocol: as §1, §2

[8] = tested on: MCF7 breast cancer cell line; experiment: NCI antiproliferative screening, 5-dose; format: cell-based
Protocol: as §1, §2

[9] = tested on: OVCAR-4 ovarian cancer cell line; experiment: NCI antiproliferative screening, 5-dose; format: cell-based
Protocol: as §1, §2

[10] = tested on: NCI/ADR-RES ovarian cancer cell line; experiment: NCI antiproliferative screening, 5-dose; format: cell-based
Protocol: as §1, §2

[11] = tested on: T-47D breast cancer cell line; experiment: NCI antiproliferative screening, 5-dose; format: cell-based
Protocol: as §1, §2

[12] = tested on: OVCAR-8 ovarian cancer cell line; experiment: NCI antiproliferative screening, 5-dose; format: cell-based
Protocol: as §1, §2

[13] = tested on: OVCAR-5 ovarian cancer cell line; experiment: NCI antiproliferative screening, 5-dose; format: cell-based
Protocol: as §1, §2

FGFR1 = target: T2, FGFR1 (Homo sapiens, UniProt P11362); experiment: Kinase HotSpot 40-kinase panel; format: biochemical; conditions: single-dose concentration of 1 μM
T2 construct: purchased Reaction Biology Corp. (Kinase HotSpot)
Protocol: (§3) Reaction Biology Corp. Kinase HotSpot^SM service [http://www.reactionbiology.com] was utilised for screening of the target compounds as per the protocol reported in the literature.
(§4) Compound 1r was tested against a panel of 40 kinases including FMS. […] Its inhibition percentages against FLT3 (D835Y) and c-MET kinases were 42% and 40%, respectively. So its IC50 values against both of them will be in micromolar scale. […] The inhibition percentages exerted by compound 1r against the other 37 tested kinases were less than 28%.

FLT3 (D835Y) = target: T3, FLT3 (D835Y) (Homo sapiens, UniProt P36888, D835Y); experiment: Kinase HotSpot 40-kinase panel; format: biochemical; conditions: single-dose concentration of 1 μM
T3 construct: purchased Reaction Biology Corp. (Kinase HotSpot)
Protocol: as §3, §4

SAPK2a = target: T4, SAPK2a (Homo sapiens, UniProt Q16539); experiment: Kinase HotSpot 40-kinase panel; format: biochemical; conditions: single-dose concentration of 1 μM
T4 construct: purchased Reaction Biology Corp. (Kinase HotSpot)
Protocol: as §3, §4

CaMKI = target: T5, CaMKI (Homo sapiens, UniProt Q14012); experiment: Kinase HotSpot 40-kinase panel; format: biochemical; conditions: single-dose concentration of 1 μM
T5 construct: purchased Reaction Biology Corp. (Kinase HotSpot)
Protocol: as §3, §4

ROS/ROS1 = target: T6, ROS/ROS1 (Homo sapiens, UniProt P08922); experiment: Kinase HotSpot 40-kinase panel; format: biochemical; conditions: single-dose concentration of 1 μM
T6 construct: purchased Reaction Biology Corp. (Kinase HotSpot)
Protocol: as §3, §4

PIM1 = target: T7, PIM1 (Homo sapiens, UniProt P11309); experiment: Kinase HotSpot 40-kinase panel; format: biochemical; conditions: single-dose concentration of 1 μM
T7 construct: purchased Reaction Biology Corp. (Kinase HotSpot)
Protocol: as §3, §4

P70S6K = target: T8, P70S6K (Homo sapiens, UniProt P23443); experiment: Kinase HotSpot 40-kinase panel; format: biochemical; conditions: single-dose concentration of 1 μM
T8 construct: purchased Reaction Biology Corp. (Kinase HotSpot)
Protocol: as §3, §4

CHK1 = target: T9, CHK1 (Homo sapiens, UniProt O14757); experiment: Kinase HotSpot 40-kinase panel; format: biochemical; conditions: single-dose concentration of 1 μM
T9 construct: purchased Reaction Biology Corp. (Kinase HotSpot)
Protocol: as §3, §4

PLK1 = target: T10, PLK1 (Homo sapiens, UniProt P53350); experiment: Kinase HotSpot 40-kinase panel; format: biochemical; conditions: single-dose concentration of 1 μM
T10 construct: purchased Reaction Biology Corp. (Kinase HotSpot)
Protocol: as §3, §4

EPHA1 = target: T11, EPHA1 (Homo sapiens, UniProt P21709); experiment: Kinase HotSpot 40-kinase panel; format: biochemical; conditions: single-dose concentration of 1 μM
T11 construct: purchased Reaction Biology Corp. (Kinase HotSpot)
Protocol: as §3, §4

ALK = target: T12, ALK (Homo sapiens, UniProt Q9UM73); experiment: Kinase HotSpot 40-kinase panel; format: biochemical; conditions: single-dose concentration of 1 μM
T12 construct: purchased Reaction Biology Corp. (Kinase HotSpot)
Protocol: as §3, §4

DMPK = target: T13, DMPK (Homo sapiens, UniProt Q09013); experiment: Kinase HotSpot 40-kinase panel; format: biochemical; conditions: single-dose concentration of 1 μM
T13 construct: purchased Reaction Biology Corp. (Kinase HotSpot)
Protocol: as §3, §4

MEK1 = target: T14, MEK1 (Homo sapiens, UniProt Q02750); experiment: Kinase HotSpot 40-kinase panel; format: biochemical; conditions: single-dose concentration of 1 μM
T14 construct: purchased Reaction Biology Corp. (Kinase HotSpot)
Protocol: as §3, §4

JNK1α1 = target: T15, JNK1α1 (Homo sapiens, UniProt P45983); experiment: Kinase HotSpot 40-kinase panel; format: biochemical; conditions: single-dose concentration of 1 μM
T15 construct: purchased Reaction Biology Corp. (Kinase HotSpot)
Protocol: as §3, §4

PAK2 = target: T16, PAK2 (Homo sapiens, UniProt Q13177); experiment: Kinase HotSpot 40-kinase panel; format: biochemical; conditions: single-dose concentration of 1 μM
T16 construct: purchased Reaction Biology Corp. (Kinase HotSpot)
Protocol: as §3, §4

KDR = target: T17, KDR (Homo sapiens, UniProt P35968); experiment: Kinase HotSpot 40-kinase panel; format: biochemical; conditions: single-dose concentration of 1 μM
T17 construct: purchased Reaction Biology Corp. (Kinase HotSpot)
Protocol: as §3, §4

mTOR = target: T18, mTOR (Homo sapiens, UniProt P42345); experiment: Kinase HotSpot 40-kinase panel; format: biochemical; conditions: single-dose concentration of 1 μM
T18 construct: purchased Reaction Biology Corp. (Kinase HotSpot)
Protocol: as §3, §4

IKKβ = target: T19, IKKβ (Homo sapiens, UniProt O14920); experiment: Kinase HotSpot 40-kinase panel; format: biochemical; conditions: single-dose concentration of 1 μM
T19 construct: purchased Reaction Biology Corp. (Kinase HotSpot)
Protocol: as §3, §4

Aurora A = target: T20, Aurora A (Homo sapiens, UniProt O14965); experiment: Kinase HotSpot 40-kinase panel; format: biochemical; conditions: single-dose concentration of 1 μM
T20 construct: purchased Reaction Biology Corp. (Kinase HotSpot)
Protocol: as §3, §4

HIPK2 = target: T21, HIPK2 (Homo sapiens, UniProt Q9H2X6); experiment: Kinase HotSpot 40-kinase panel; format: biochemical; conditions: single-dose concentration of 1 μM
T21 construct: purchased Reaction Biology Corp. (Kinase HotSpot)
Protocol: as §3, §4

ROCK1 = target: T22, ROCK1 (Homo sapiens, UniProt Q13464); experiment: Kinase HotSpot 40-kinase panel; format: biochemical; conditions: single-dose concentration of 1 μM
T22 construct: purchased Reaction Biology Corp. (Kinase HotSpot)
Protocol: as §3, §4

GSK3β = target: T23, GSK3β (Homo sapiens, UniProt P49841); experiment: Kinase HotSpot 40-kinase panel; format: biochemical; conditions: single-dose concentration of 1 μM
T23 construct: purchased Reaction Biology Corp. (Kinase HotSpot)
Protocol: as §3, §4

c-SRC = target: T24, c-SRC (Homo sapiens, UniProt P12931); experiment: Kinase HotSpot 40-kinase panel; format: biochemical; conditions: single-dose concentration of 1 μM
T24 construct: purchased Reaction Biology Corp. (Kinase HotSpot)
Protocol: as §3, §4

[14] = concentration producing 50% inhibition, mean of duplicate experiments
[15] = concentration producing 100% inhibition

T15 sequence (P45983 1-384 isoform P45983-2): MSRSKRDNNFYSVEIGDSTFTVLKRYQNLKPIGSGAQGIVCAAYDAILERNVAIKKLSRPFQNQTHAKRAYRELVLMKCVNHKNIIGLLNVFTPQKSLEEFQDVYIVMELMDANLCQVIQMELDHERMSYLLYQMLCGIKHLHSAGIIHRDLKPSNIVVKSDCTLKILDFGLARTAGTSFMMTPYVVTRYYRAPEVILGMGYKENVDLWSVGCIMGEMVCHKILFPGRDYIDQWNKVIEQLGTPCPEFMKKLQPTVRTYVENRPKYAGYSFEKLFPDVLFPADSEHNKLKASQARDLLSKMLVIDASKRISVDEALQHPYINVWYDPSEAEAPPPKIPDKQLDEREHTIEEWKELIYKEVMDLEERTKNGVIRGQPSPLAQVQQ
T20 sequence (O14965 whole entry): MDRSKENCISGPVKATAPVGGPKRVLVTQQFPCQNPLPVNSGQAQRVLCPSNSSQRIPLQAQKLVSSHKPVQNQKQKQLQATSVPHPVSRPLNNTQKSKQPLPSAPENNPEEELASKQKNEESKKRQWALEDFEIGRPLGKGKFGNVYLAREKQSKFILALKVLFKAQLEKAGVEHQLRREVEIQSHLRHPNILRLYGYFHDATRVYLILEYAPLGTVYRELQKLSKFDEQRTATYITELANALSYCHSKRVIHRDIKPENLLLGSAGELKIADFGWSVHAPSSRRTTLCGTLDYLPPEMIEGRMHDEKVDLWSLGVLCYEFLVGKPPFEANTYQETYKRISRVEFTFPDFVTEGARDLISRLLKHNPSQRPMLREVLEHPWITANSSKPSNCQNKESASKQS
T4 sequence (Q16539 whole entry): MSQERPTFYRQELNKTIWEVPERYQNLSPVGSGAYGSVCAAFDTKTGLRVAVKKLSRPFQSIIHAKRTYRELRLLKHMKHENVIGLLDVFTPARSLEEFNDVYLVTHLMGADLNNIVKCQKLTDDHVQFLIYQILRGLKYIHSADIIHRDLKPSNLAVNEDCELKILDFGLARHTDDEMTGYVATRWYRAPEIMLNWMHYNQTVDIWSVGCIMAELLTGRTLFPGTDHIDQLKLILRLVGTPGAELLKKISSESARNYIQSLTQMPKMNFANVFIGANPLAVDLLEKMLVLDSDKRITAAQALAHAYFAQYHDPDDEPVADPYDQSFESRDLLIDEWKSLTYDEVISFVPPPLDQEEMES
T19 sequence (O14920 whole entry): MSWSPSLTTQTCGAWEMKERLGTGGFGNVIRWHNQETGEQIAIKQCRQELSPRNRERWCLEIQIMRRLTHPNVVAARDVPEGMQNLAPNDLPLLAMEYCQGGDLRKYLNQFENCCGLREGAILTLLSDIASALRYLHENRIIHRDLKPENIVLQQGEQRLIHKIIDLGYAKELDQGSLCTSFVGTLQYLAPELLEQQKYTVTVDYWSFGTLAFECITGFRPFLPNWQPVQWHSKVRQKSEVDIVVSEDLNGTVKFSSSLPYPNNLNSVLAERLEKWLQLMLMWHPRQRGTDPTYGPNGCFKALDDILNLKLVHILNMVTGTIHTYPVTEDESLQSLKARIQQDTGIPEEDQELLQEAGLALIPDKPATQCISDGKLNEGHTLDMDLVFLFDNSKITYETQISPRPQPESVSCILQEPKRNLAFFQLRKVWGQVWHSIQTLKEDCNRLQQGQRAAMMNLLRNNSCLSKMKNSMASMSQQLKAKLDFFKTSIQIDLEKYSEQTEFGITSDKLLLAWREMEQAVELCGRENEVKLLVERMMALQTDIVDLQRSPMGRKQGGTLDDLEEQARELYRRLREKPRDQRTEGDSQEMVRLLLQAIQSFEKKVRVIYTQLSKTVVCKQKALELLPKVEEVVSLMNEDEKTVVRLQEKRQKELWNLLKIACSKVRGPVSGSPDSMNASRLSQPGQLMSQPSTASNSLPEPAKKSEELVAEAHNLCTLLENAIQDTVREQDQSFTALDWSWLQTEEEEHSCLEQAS
T23 sequence (P49841 whole entry): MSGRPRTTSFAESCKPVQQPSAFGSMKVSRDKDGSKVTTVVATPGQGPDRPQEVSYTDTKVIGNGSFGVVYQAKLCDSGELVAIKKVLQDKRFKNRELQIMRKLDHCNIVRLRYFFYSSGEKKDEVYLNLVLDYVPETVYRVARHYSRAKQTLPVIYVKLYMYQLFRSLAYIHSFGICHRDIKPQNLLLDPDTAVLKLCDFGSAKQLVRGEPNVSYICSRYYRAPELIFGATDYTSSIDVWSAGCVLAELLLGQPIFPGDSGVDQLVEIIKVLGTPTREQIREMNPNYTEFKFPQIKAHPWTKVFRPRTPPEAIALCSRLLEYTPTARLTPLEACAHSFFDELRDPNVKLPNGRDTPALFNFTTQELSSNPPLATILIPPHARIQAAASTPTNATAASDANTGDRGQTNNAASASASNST
T21 sequence (Q9H2X6 whole entry): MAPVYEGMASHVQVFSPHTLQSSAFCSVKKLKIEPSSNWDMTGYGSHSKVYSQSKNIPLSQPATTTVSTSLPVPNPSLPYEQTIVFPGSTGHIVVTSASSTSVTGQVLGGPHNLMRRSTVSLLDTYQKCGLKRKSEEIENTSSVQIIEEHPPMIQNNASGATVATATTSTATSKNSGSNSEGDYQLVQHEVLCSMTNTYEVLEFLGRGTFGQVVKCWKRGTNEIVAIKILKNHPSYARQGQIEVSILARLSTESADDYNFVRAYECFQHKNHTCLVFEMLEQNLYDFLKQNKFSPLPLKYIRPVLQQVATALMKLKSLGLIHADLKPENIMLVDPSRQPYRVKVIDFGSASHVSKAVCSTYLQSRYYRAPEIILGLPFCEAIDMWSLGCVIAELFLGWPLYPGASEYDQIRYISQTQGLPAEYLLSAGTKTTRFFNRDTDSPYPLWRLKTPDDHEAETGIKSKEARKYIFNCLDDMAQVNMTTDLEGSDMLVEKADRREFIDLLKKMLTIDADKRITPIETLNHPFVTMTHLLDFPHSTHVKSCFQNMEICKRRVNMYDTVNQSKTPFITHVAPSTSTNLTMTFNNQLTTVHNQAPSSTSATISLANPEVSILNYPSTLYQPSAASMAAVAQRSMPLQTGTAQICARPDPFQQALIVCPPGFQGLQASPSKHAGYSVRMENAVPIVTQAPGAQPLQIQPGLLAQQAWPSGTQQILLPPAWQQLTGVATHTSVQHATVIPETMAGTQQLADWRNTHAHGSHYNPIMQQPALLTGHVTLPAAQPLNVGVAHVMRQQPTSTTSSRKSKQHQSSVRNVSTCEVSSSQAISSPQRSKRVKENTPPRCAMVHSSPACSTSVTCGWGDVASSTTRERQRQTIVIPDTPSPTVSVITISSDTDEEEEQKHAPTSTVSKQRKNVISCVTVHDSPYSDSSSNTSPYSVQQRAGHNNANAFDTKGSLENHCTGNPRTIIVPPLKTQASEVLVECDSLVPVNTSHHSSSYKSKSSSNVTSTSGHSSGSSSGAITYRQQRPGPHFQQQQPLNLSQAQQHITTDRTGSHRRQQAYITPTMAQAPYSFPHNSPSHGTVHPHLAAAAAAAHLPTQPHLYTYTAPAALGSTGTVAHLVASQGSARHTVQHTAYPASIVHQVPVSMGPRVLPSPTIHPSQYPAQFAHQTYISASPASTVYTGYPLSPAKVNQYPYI
T13 sequence (Q09013 whole entry): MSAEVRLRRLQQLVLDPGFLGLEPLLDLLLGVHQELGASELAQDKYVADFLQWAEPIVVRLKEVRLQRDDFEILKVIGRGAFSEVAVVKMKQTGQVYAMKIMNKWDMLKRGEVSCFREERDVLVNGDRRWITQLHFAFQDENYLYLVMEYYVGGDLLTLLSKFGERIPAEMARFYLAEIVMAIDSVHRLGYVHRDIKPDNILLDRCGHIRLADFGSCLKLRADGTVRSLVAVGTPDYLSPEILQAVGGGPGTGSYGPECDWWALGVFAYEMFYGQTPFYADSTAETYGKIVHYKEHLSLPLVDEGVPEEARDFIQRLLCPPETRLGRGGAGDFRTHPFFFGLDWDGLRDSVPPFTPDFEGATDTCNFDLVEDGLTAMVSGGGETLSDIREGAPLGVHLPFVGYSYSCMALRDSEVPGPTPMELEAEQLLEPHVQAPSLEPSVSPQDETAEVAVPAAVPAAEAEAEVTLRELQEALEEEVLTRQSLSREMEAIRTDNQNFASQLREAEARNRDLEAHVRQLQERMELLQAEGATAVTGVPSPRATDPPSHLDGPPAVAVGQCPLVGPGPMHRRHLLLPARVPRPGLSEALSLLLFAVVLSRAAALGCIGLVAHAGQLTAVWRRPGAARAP
T2 sequence (P11362 22-822): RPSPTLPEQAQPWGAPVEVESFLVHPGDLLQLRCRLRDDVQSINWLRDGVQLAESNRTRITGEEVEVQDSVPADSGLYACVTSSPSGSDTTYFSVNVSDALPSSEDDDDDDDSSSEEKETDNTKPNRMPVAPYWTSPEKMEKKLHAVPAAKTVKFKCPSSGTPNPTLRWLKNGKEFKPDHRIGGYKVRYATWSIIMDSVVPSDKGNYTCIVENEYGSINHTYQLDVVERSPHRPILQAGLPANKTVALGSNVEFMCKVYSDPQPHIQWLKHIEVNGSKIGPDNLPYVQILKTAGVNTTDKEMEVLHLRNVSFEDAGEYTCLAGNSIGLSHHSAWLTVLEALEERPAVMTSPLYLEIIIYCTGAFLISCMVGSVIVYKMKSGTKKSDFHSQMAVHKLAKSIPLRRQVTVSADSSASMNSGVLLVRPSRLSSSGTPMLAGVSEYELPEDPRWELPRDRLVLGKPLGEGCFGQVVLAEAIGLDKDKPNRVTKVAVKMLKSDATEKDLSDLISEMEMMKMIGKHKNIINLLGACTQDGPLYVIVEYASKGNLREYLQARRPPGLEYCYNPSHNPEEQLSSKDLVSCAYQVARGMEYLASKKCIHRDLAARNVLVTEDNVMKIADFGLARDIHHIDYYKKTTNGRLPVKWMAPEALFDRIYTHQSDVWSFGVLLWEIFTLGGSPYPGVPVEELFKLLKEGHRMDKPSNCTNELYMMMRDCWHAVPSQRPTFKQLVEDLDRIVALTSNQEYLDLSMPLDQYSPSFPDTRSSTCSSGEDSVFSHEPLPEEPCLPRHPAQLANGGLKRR

Q: For `Nc1nccc2c1ccn2-c1cccc(NC(=O)c2ccc(N3CCOCC3)c(C(F)(F)F)c2)c1` [Compound 1r], which “% Inhibition” value (FMS kinase) is on record?
A: 81%

Q: And the IC50 [1, 14]?
A: 1300 nM

Q: And the TGI [1, 15]?
A: 4670 nM

Q: And the IC50 [2, 14]?
A: 300 nM

Q: What about the TGI [2, 15] of the same compound?
A: 3140 nM

Q: What about the IC50 [3, 14] of the same compound?
A: 340 nM

Q: And the TGI [3, 15]?
A: 2430 nM

Q: And the IC50 [4, 14]?
A: 700 nM

Q: What about the TGI [4, 15] of the same compound?
A: 43300 nM

Q: What about the IC50 [5, 14] of the same compound?
A: 840 nM

Q: And the TGI [5, 15]?
A: 2320 nM

Q: And the IC50 [6, 14]?
A: 380 nM

Q: What about the TGI [6, 15] of the same compound?
A: 10400 nM

Q: What about the IC50 [7, 14] of the same compound?
A: 240 nM

Q: And the TGI [7, 15]?
A: 1470 nM

Q: What about the IC50 [8, 14] of the same compound?
A: 150 nM

Q: And the TGI [8, 15]?
A: 6860 nM

Q: What about the IC50 [9, 14] of the same compound?
A: 1080 nM

Q: And the TGI [9, 15]?
A: 26000 nM

Q: And the IC50 [10, 14]?
A: 340 nM

Q: And the TGI [10, 15]?
A: >50000 nM

Q: And the IC50 [11, 14]?
A: 1780 nM

Q: And the TGI [11, 15]?
A: 27500 nM

Q: What about the IC50 [12, 14] of the same compound?
A: 1260 nM

Q: And the TGI [12, 15]?
A: 9960 nM

Q: And the IC50 [13, 14]?
A: 1380 nM

Q: What about the TGI [13, 15] of the same compound?
A: >50000 nM

Q: And the “% Inhibition” value (FGFR1)?
A: −3%

Q: What about the “% Inhibition” value (FLT3 (D835Y)) of the same compound?
A: 42%

Q: What about the “% Inhibition” value (SAPK2a) of the same compound?
A: −1%

Q: What about the “% Inhibition” value (CaMKI) of the same compound?
A: −23%

Q: And the “% Inhibition” value (ROS/ROS1)?
A: −4%

Q: And the “% Inhibition” value (PIM1)?
A: −6%

Q: And the “% Inhibition” value (P70S6K)?
A: −8%

Q: And the “% Inhibition” value (CHK1)?
A: −6%

Q: And the “% Inhibition” value (PLK1)?
A: 7%

Q: And the “% Inhibition” value (EPHA1)?
A: −10%

Q: And the “% Inhibition” value (ALK)?
A: 0%

Q: And the “% Inhibition” value (DMPK)?
A: −1%

Q: And the “% Inhibition” value (MEK1)?
A: −7%

Q: What about the “% Inhibition” value (JNK1α1) of the same compound?
A: −5%

Q: And the “% Inhibition” value (PAK2)?
A: −9%

Q: What about the “% Inhibition” value (KDR) of the same compound?
A: 1%

Q: And the “% Inhibition” value (mTOR)?
A: −2%

Q: What about the “% Inhibition” value (IKKβ) of the same compound?
A: 1%

Q: What about the “% Inhibition” value (Aurora A) of the same compound?
A: −2%

Q: What about the “% Inhibition” value (HIPK2) of the same compound?
A: 6%

Q: And the “% Inhibition” value (ROCK1)?
A: 2%

Q: What about the “% Inhibition” value (GSK3β) of the same compound?
A: −3%

Q: What about the “% Inhibition” value (c-SRC) of the same compound?
A: −4%
